In patent US12577231B2, “Androgen receptor PROTACS” (GlaxoSmithKline Intellectual Property Development Limited, priority 2023, dated 2026) one finds Dmax data, which are given here for 13 molecules.

Each structure is given as a SMILES string.

The test deals with T1, Androgen Receptor dual T878A/L702H mutant protein (Homo sapiens, UniProt P10275, L702H/T878A).
T1 construct: host or cells: MDA-PCa-2b
T1 sequence (P10275 1-920 L702H/T878A): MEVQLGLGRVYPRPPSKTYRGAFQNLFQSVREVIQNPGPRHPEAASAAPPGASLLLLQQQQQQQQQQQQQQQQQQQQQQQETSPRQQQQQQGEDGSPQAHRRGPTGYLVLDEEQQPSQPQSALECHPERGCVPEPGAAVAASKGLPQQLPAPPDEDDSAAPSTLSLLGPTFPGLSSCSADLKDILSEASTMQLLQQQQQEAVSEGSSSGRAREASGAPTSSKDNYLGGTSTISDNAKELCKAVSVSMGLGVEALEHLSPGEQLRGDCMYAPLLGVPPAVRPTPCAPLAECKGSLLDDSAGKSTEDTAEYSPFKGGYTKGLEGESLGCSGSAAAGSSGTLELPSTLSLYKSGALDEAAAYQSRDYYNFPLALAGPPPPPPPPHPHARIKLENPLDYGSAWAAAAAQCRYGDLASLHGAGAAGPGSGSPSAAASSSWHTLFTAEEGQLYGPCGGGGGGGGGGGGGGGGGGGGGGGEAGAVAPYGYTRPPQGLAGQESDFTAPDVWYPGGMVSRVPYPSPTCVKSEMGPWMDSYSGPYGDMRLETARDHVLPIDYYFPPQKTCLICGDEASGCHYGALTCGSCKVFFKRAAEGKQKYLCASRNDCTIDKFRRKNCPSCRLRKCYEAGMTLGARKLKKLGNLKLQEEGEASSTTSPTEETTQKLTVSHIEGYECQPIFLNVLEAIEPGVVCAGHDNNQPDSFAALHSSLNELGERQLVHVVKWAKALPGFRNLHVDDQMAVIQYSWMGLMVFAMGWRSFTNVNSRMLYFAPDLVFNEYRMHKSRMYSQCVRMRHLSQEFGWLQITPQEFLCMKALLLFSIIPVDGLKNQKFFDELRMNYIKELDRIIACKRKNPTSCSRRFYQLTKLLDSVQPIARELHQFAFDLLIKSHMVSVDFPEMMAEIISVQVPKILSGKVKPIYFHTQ
Nature of the test: Dual Mutant (T878A/L702H) Androgen Receptor Degradation Assay (HTRF, MDA-PCa-2b cells). The class given is cell-based. Particulars: 18 h, 18 h incubation, read-out: mean asymptote max. As to the method: Degradation of Androgen Receptor dual T878A/L702H mutant protein in human MDA-PCa-2b (ATCC) cells treated with PROTACs was quantified using the HTRF Human Androgen Receptor Detection Kit (PerkinElmer) in 384 well assay plate format. 10 mM DMSO (Sigma-Aldrich) stock solutions of PROTACs were prepared and diluted across an 11 concentration, 3-fold increment range, and 25 nL dispensed into a white opaque bottomed 384 well assay plate (Thermofisher) using an acoustic ECHO dispenser (Labcyte). Cells were cultured in growth medium (BRFF—HPC-1 (Athena ES) supplemented with 20% FBS (Gibco), penicillin 50U/mL and streptomycin 50 μg/mL (Gibco, #15140-122)) in collagen I or poly-D-lysine coated T175 flasks (Corning, #356487 or #356539, respectively). For the assay, cells were harvested from the flask, centrifuged at 200 g for 5 min and then resuspended in the growth medium. 25 μl of cell suspension containing 10,000 cells was dispensed into each well of the assay plate containing the test compounds, which was then incubated for 18 h at 37° C./5% CO2. Control wells were included on each assay plate, with assay medium without cells being the no AR remaining 100% effect control, and cells treated with DMSO vehicle only, without PROTAC, the 0% effect control. After 18 h incubation 8 μl of supplemented lysis buffer from HTRF kit was added to each well and the plate shaken at 500 rpm for 1 h at room temperature. 8 μl of antibody mix in Detection buffer from HTRF kit was added to each well and the plate was incubated for 2 h in dark at mom temperature. The fluorescence was measured at both 620 nm and 665 nm using an excitation wavelength of 337 nm with a PHERAstar microplate reader (BMG Labtech) and the % AR protein remaining in each well was calculated by normalising the HTRF ratio (665 nm signal/620 nm signal) value to the control wells mentioned above. Parameters corresponding to the potency and efficacy estimates of the PROTACs were obtained from these normalised values using curve fitting software (IDBS ActivityBase). These included the DC50 and the Dmax estimates. Two versions of the DC50, called relative DC50 and absolute DC50, were typically generated. These are the inflection point of a fitted 4 parameter sigmoidal response curve and the interpolated concentration of PROTAC corresponding to 50% of the protein being degraded, respectively. The Dmax parameter was the maximum experimentally observed degradation and the asymptote max parameter the fitted response curve asymptote maximum.
For the molecule `CC1(C)[C@H](NC(=O)c2ccc(N3CCC(O)(CN4CCC(n5ncc6c(N7CCC(=O)NC7=O)cccc65)CC4)CC3)c(F)c2)C(C)(C)[C@H]1Oc1ccc(C#N)c2ncccc12` [Example 48, N-((1r,3r)-3-((8-Cyanoquinolin-5-yl)oxy)-2,2,4,4-tetramethylcyclobutyl)-4-(4-((4-(4-(2,4-dioxotetrahydropyrimidin-1(2H)-yl)-1H-indazol-1-yl)piperidin-1-yl)methyl)-4-hydroxypiperidin-1-yl)-3-fluorobenzamide], the Dmax is at least 50%.
Next, `CC1(C)[C@H](NC(=O)c2ccc(N3CCC(CN4CCC(n5ncc6c(N7CCC(=O)NC7=O)cccc65)CC4)CC3)c(F)c2)C(C)(C)[C@H]1Oc1ccc(C#N)c2c1CCCO2` [Example 8, N-((1r,3r)-3-((8-Cyanochroman-5-yl)oxy)-2,2,4,4-tetramethylcyclobutyl)-4-(4-((4-(4-(2,4-dioxotetrahydropyrimidin-1(2H)-yl)-1H-indazol-1-yl)piperidin-1-yl)methyl)piperidin-1-yl)-3-fluorobenzamide]: at least 50%; `CC1(C)[C@H](NC(=O)c2ccc(N3CCC(CN4CCC(n5ccc6c(N7CCC(=O)NC7=O)cccc65)CC4)CC3)cc2)C(C)(C)[C@H]1Oc1ccc(C#N)c2ncccc12` [Example 43, N-((1r,3r)-3-((8-Cyanoquinolin-5-yl)oxy)-2,2,4,4-tetramethylcyclobutyl)-4-(4-((4-(4-(2,4-dioxotetrahydropyrimidin-1(2H)-yl)-1H-indol-1-yl)piperidin-1-yl)methyl)piperidin-1-yl)benzamide]: at least 50%; `CC1(C)[C@H](NC(=O)c2ccc(N3CCC(CN4CCC(n5ncc6c(N7CCC(=O)NC7=O)cccc65)CC4)CC3)c(F)c2)C(C)(C)[C@H]1Oc1ccc(C#N)c2ncccc12` [Example 6, N-((1r,3r)-3-((8-Cyanoquinolin-5-yl)oxy)-2,2,4,4-tetramethylcyclobutyl)-4-(4-((4-(4-(2,4-dioxotetrahydropyrimidin-1(2H)-yl)-1H-indazol-1-yl)piperidin-1-yl)methyl)piperidin-1-yl)-3-fluorobenzamide]: at least 50%.
Consider `COc1cc(O[C@H]2C(C)(C)[C@H](NC(=O)c3ccc(N4CCC(CN5CCC(n6ncc7c(N8CCC(=O)NC8=O)cccc76)CC5)CC4)cc3)C2(C)C)ccc1C#N` [Example 15, N-((1r,3r)-3-(4-Cyano-3-methoxyphenoxy)-2,2,4,4-tetramethylcyclobutyl)-4-(4-((4-(4-(2,4-dioxotetrahydropyrimidin-1(2H)-yl)-1H-indazol-1-yl)piperidin-1-yl)methyl)piperidin-1-yl)benzamide], for which the Dmax was at least 50%.
For `CC1(C)[C@H](NC(=O)c2ccc(N3CCC(CN4CC[C@@H](n5ncc6c(N7CCC(=O)NC7=O)cccc65)[C@@H](F)C4)CC3)c(F)c2)C(C)(C)[C@H]1Oc1ccc(C#N)c2ncccc12` [Example 45, N-((1r,3r)-3-((8-Cyanoquinolin-5-yl)oxy)-2,2,4,4-tetramethylcyclobutyl)-4-(4-(((35,4R)-4-(4-(2,4-dioxotetrahydropyrimidin-1(2H)-yl)-1H-indazol-1-yl)-3-fluoropiperidin-1-yl)methyl)piperidin-1-yl)-3-fluorobenzamide], the Dmax was 49%.
Regarding `CC1(C)[C@H](NC(=O)c2ccc(N3CCC(CN4CCC(n5ncc6c(N7CCC(=O)NC7=O)cc(F)cc65)CC4)CC3)c(F)c2)C(C)(C)[C@H]1Oc1ccc(C#N)c2ncccc12` [Example 38, N-((1r,3r)-3-((8-Cyanoquinolin-5-yl)oxy)-2,2,4,4-tetramethylcyclobutyl)-4-(4-((4-(4-(2,4-dioxotetrahydropyrimidin-1(2H)-yl)-6-fluoro-1H-indazol-1-yl)piperidin-1-yl)methyl)piperidin-1-yl)-3-fluorobenzamide], the Dmax is at least 50%.
Take `CC1(C)[C@H](NC(=O)c2ccc(N3CCC(CN4CCC(n5ccc6c(N7CCC(=O)NC7=O)ncnc65)CC4)CC3)cc2)C(C)(C)[C@H]1Oc1ccc(C#N)c2ncccc12` [Example 28, N-((1r,3r)-3-((8-Cyanoquinolin-5-yl)oxy)-2,2,4,4-tetramethylcyclobutyl)-4-(4-((4-(4-(2,4-dioxotetrahydropyrimidin-1(2H)-yl)-7H-pyrrolo[2,3-d]pyrimidin-7-yl)piperidin-1-yl)methyl)piperidin-1-yl)benzamide]: the Dmax was at least 50%.
Next, `COc1c(C#N)ccc(O[C@H]2C(C)(C)[C@H](NC(=O)c3ccc(N4CCC(CN5CCC(n6ncc7c(N8CCC(=O)NC8=O)cccc76)CC5)CC4)c(F)c3)C2(C)C)c1C` [Example 5, N-((1r,3r)-3-(4-Cyano-3-methoxy-2-methylphenoxy)-2,2,4,4-tetramethylcyclobutyl)-4-(4-((4-(4-(2,4-dioxotetrahydropyrimidin-1(2H)-yl)-1H-indazol-1-yl)piperidin-1-yl)methyl)piperidin-1-yl)-3-fluorobenzamide]: at least 50%; `CC1(C)[C@H](NC(=O)c2ccc(N3CCC(CN4CCC(n5ncc6c(N7CCC(=O)NC7=O)cccc65)CC4)CC3)c(F)c2)C(C)(C)[C@H]1Oc1cnc(C#N)c(Cl)c1` [Example 3, N-((1r,3r)-3-((5-Chloro-6-cyanopyridin-3-yl)oxy)-2,2,4,4-tetramethylcyclobutyl)-4-(4-((4-(4-(2,4-dioxotetrahydropyrimidin-1(2H)-yl)-1H-indazol-1-yl)piperidin-1-yl)methyl)piperidin-1-yl)-3-fluorobenzamide]: at least 50%.
For the molecule `CC1(C)[C@H](NC(=O)c2ccc(N3CCC(CN4CCC(n5ccc6c(N7CCC(=O)NC7=O)cccc65)CC4)CC3)c(F)c2)C(C)(C)[C@H]1Oc1ccc(C#N)c2ncccc12` [Example 31, N-((1r,3r)-3-((8-Cyanoquinolin-5-yl)oxy)-2,2,4,4-tetramethylcyclobutyl)-4-(4-((4-(4-(2,4-dioxotetrahydropyrimidin-1(2H)-yl)-1H-indol-1-yl)piperidin-1-yl)methyl)piperidin-1-yl)-3-fluorobenzamide], the Dmax was at least 50%.
`CC1(C)[C@H](NC(=O)c2ccc(N3CCC(CN4CCC(n5ncc6c(N7CCC(=O)NC7=O)cc(Cl)cc65)CC4)CC3)c(F)c2)C(C)(C)[C@H]1Oc1ccc(C#N)c2ncccc12` [Example 41, 4-(4-((4-(6-Chloro-4-(2,4-dioxotetrahydropyrimidin-1(2H)-yl)-1H-indazol-1-yl)piperidin-1-yl)methyl)piperidin-1-yl)-/-((1r,3r)-3-((8-cyanoquinolin-5-yl)oxy)-2,2,4,4-tetramethylcyclobutyl)-3-fluorobenzamide]: the Dmax is at least 50%.
For `CC1(C)[C@H](NC(=O)c2ccc(N3CC[C@H](CN4CCC(n5ncc6c(N7CCC(=O)NC7=O)cccc65)CC4)C3)c(F)c2)C(C)(C)[C@H]1Oc1ccc(C#N)c2ncccc12` [Example 34, N-((1r,3R)-3-((8-Cyanoquinolin-5-yl)oxy)-2,2,4,4-tetramethylcyclobutyl)-4-((R)-3-((4-(4-(2,4-dioxotetrahydropyrimidin-1(2H)-yl)-1H-indazol-1-yl)piperidin-1-yl)methyl)pyrrolidin-1-yl)-3-fluorobenzamide], the Dmax was at least 50%.
